Laboratory results as given in patent US6900200B2, “Tricyclic hydroxy carboxamides and derivatives thereof tocolytic oxytocin receptor antagonists” (Wyeth, priority 2001, dated 2005).
pIC50: −log10 of the molar value.

What was measured:
[1] = target: T1, human vasopressin V2 receptor subtype (Homo sapiens, UniProt P30518); assay: Vasopressin binding in CHO cell membranes expressing human vasopressin V2 subtype receptors ([3H]arginine vasopressin radioligand binding); conditions: for pIC50: value printed in parentheses; for inhibition at 0.1 µM: @ 100 nM
T1 construct: host or cells: CHO cells, pZeoSV vector
Excerpt: Vasopressin Binding in Chinese Hamster Ovary Cell Membranes Expressing Human Vasopressin V2 Subtype Receptors
Chinese Hamster Ovary (CHO) cells stably transfected with the human V2 subtype receptors were obtained from M. Thibonnier, Case Western Reserve University School of Medicine, Cleveland, Ohio.
A. Passaging and Amplification of Cells
CHO cells transfected with the human vasopressin V2 subtype receptors obtained from M. Thibonnier (pZeoSV vector) are allowed to grow to confluency (approx. >90%) in T-150 flasks under sterile conditions, in a cell culture medium ofF-12 Nutrient Mixture (HAM) with L-glutamine (Gibco Cat. #11765-054) containing 15 mM HEPES (Gibco Cat. #15630-080), 1% antibiotic/antimycotic (add 5 mL 100×, Gibco Cat. #15240-062 per 500 mL F-12), 250 μg/mL Zeocin (add 1.25 mL of 100 mg/mL Invitrogen R-250-01 per 500 mL F-1 2) and 10% Fetal Bovine Serum (Qualified, heat inactivated, Gibco Cat. #16140-063). The medium is removed by aspiration and the cells washed with 10 mL of Hank's Balanced Salt solution (Gibco Cat. #14175-095). The salt solution is removed by aspiration and the cells trypsinized with 5 mL of trypsin-EDTA (0.05% trypsin, 0.53 mM EDTA-4Na, Gibco Cat. #25300-070) for 1 min. The trypsin is removed by aspiration and the cells dislodged by tapping. Cell Culture medium (e.g. 30 mL for 1:30 split) is immediately added and mixed well to inactivate trypsin. 1 mL of detached cells is added to new culture flasks containing fresh Cell Culture medium (e.g. into 25 mL per T-150 flask), and mixed gently. The cells are incubated at 37° C. in 5% CO2. The medium is changed at 3 to 4 day interval (or as appropriate). The cells grow to confluency (approx. >75%-95%) within 7-8 days. All steps are done under sterile conditions.
The cells are washed twice gently with Hank's Balanced Salt solution (e.g. use 10 mL per T-150 flask). The excess solution is removed and the cells bathed for 15-30 min. in an enzyme-free Cell Dissociation Buffer (e.g. use 8 mL Hank's Based, Gibco Cat. # 13150-016 per T-150 flask) until cells are loosened. The contents are transferred to centrifuge tubes (50 mL) kept in ice bath. All subsequent steps are done at 4° C. The tubes are centrifuged at 300×g for 15 min (1380 rpm on SORVAL, Model RT6000D, using the rotor for 50 mL tubes). The supernatant is discarded and the cells suspended in homogenizing buffer (10 mM Tris-HCl containing 0.25 M sucrose and 1 mM EDTA, pH 7.4) ensuring that the volume of the buffer is about ten times the volume of the cell pellet. The cells are pooled into a centrifuge tube (50 mL) and homogenized with Polytron at setting 6 for 10 sec. The homogenate is transferred into a Potter-Elvjehm homogenizer and homogenized with 3 strokes. The homogenate is centrifuged at 1500×g for 60 min at 4° C. (3100 rpm using SORVAL, model RT6000D, using the rotor for 50 mL tubes). The pellet is discarded. The supernatant is centrifuged at 100,000×g for 60 min. at 4° C. (Beckman L8-80M ultracentrifuge; spin at 37,500 rpm with rotor type 70 Ti for 50 mL tubes; 38,000 rpm with type 80Ti for 15 mL tubes; or 35,800 rpm with rotor type 45Ti). The supernantant is discarded and the pellet suspended in 3 to 4 mL of Tris buffer (50 mM TRIS—HCl, pH 7.4). The protein content is estimated by the Bradford or Lowry method. The volume of the membrane suspension is adjusted with the membrane buffer (50 mM Tris-HCl containing 0.1% BSA and 0.1 mM PMSF) to give 3.0 mg/mL (or as appropriate) of protein. The membranes are aliquoted and stored at −70. ° C.
C. Radioligand Binding Assay
In wells of a 96-well format microtiter plate, is added 90, 110 or 130 μL (to make up a final volume of 200 μL) of assay buffer containing 50 mM of Tris-HCl (pH 7.4), […], 1 mg % aprotinin, 1 mg % leupeptin, 2 mg % 1,10-phenanthroline, 10 mg % trypsin inhibitor, and 0.1 mM PMSF. The inhibitors are added on the day of the experiment. […]

T1 sequence (P30518 whole entry): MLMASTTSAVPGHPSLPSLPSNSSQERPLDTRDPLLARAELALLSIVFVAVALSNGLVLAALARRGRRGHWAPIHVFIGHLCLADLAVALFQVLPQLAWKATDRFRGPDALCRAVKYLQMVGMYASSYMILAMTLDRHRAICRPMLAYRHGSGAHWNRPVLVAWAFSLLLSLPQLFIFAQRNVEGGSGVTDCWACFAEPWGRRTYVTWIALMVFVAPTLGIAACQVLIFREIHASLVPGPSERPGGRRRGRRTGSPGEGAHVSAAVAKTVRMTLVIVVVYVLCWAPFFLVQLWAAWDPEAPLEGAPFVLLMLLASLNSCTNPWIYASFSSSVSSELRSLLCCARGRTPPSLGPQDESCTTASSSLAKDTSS

SMILES	pIC50 [1]	melting point	inhibition at 0.1 µM [1]
COc1cc(C(=O)N2Cc3ccc(C(=O)N(C)CC(O)CO)n3Cc3ccccc32)ccc1-c1ccccc1C(F)(F)F (stereo not shown) [Example 21, N-(2,3-Dihydroxypropyl)-10-{[2-methoxy-2′-trifluoromethyl-[1,1′-biphenyl]-4-yl]carbonyl}-N-methyl-10,11-dihydro-5H-pyrrolo[2,1-c][1,4]benzodiazepine-3-carboxamide]	6.51	119 to 123 °C	–
COc1cc2c(cc1OC)N(C(=O)c1ccc(-c3ccccc3OC)c(C)c1)Cc1ccc(C(=O)N(C)C[C@H](O)[C@@H](O)[C@H](O)[C@H](O)CO)n1C2 [Example 37, 7,8-Dimethoxy-10-[(2′-methoxy-2-methyl-[1,1′-biphenyl]-4-yl)carbonyl]-10,11-dihydro-5H-pyrrolo[2,1-c][1,4]benzodiazepine-3-carboxylic acid methyl-[(2S, 3R, 4R, 5R)-2,3,4,5,6-pentahydroxy-hexyl)-amide]	–	110 to 120 °C	7%
COc1cc2c(cc1OC)N(C(=O)c1ccc(-c3ccccc3C(F)(F)F)c(C)c1)Cc1ccc(C(=O)N(CCO)CCO)n1C2 [Example 19, N,N-Bis(2-Hydroxyethyl)-7,8-dimethoxy-10-{[2-methyl-2′-trifluoromethyl-[1,1′-biphenyl]-4-yl]carbonyl}-10,11-dihydro-5H-pyrrolo[2,1-c][1,4]benzodiazepine-3-carboxamide]	–	130 to 132 °C	3%
Cc1cc(C(=O)N2Cc3ccc(C(=O)N(C)CC(O)CO)n3Cc3ccccc32)ccc1-c1ccccc1C(F)(F)F (stereo not shown) [Example 2, 10-[(2-Methyl-2′-trifluoromethyl-[1,1′-biphenyl]-4-yl)carbonyl]-10,11-dihydro-5H-pyrrolo[2,1-c][1,4]benzodiazepine-3-carboxylic acid (2,3-dihydroxy-propyl)-methyl-amide]	6.20	169 to 172 °C	–
COc1cc(C(=O)N2Cc3ccc(C(=O)N(C)CC(O)CN(C)C)n3Cc3ccccc32)ccc1-c1ccccc1C(F)(F)F (stereo not shown) [Example 22, N-[(3-Dimethylamino)-2-hydroxy-propyl]-10-{[2-methoxy-2′-trifluoromethyl-[1,1′-biphenyl]-4-yl]carbonyl}-N-methyl-10,11-dihydro-5H-pyrrolo[2,1-c][1,4]benzodiazepine-3-carboxamide]	5.94	120 to 125 °C (dec.)	–
